Laboratory results taken from publication PMC5603908 (Biochemistry, 2017).
No end group written: not given here.

Columns and labels:
[1] = tested on: methicillin-resistant S. aureus (MRSA) USA300; conditions: minimal inhibitory concentration, microdilution method
E. coli ATCC 25922 = conditions: minimal inhibitory concentration, microdilution method
human HEK293 cells = conditions: cited from earlier work
human HaCaT cells = conditions: cited from earlier work
S. aureus USA300 = conditions: after peptide treatment; cited from earlier work

Substance: WRWLRRIW-NH2 [W2R]
- HL50 (human red blood cells): 100 µM
- S. aureus (MIC) [1]: 6.2 µM
- E. coli (MIC) (E. coli ATCC 25922): 25 µM

Substance: RWWLRRIW-NH2 [W1R]
- HL50 (human red blood cells): >200 µM
- E. coli (MIC) (E. coli ATCC 25922): 25 µM

Substance: WWWLRRIR-NH2 [W8R]
- HL50 (human red blood cells): >200 µM
- E. coli (MIC) (E. coli ATCC 25922): 25 µM

Substance: WWWLRRIW-NH2 [WT]
- cytotoxicity (human HEK293 cells): less cytotoxic
- HL50 (human red blood cells): 35 µM
- S. aureus (MIC) [1]: 3.1 µM
- E. coli (MIC) (E. coli ATCC 25922): 6.2 µM
- cytotoxicity (human HaCaT cells): less cytotoxic

Substance: WWRLRRIW-NH2 [W3R]
- HL50 (human red blood cells): >200 µM
- E. coli (MIC) (E. coli ATCC 25922): 25 µM

Substance: WWWLRKIW-NH2 [TetraF2W-RK]
- time to entry of non-permeable dye FITC into S. aureus (S. aureus USA300): 30 s

Substance: WWWLRRRW-NH2 [I7R]
- HL50 (human red blood cells): 150 µM
- S. aureus (MIC) [1]: 3.1 µM
- E. coli (MIC) (E. coli ATCC 25922): 6.2 µM

Substance: WWWRRRIW-NH2 [L4R]
- HL50 (human red blood cells): >200 µM
- E. coli (MIC) (E. coli ATCC 25922): 25 µM
